How the values were obtained:
[1] = test system: MCF-7 cells; assay: EMT assay by phase contrast microscopy in MCF-IM model; format: cell-based, human; conditions: MCF-IM model; for EMT (morphology): bisindolylmaleimide 1 μM, 1 hr pre-treatment before PMA for 60 hrs
Protocol: EMT assays were performed in 24-well plates (Costar, Corning Inc., Corning, N.Y., USA). For this assay, usually MCF-7 cells were seeded at 4×10^4/well/500 μL media one day before the experiment unless otherwise specified. Cells were stimulated with various EMT stimuli prepared in warm media the following day and monitored for EMT changes under the microscope specified below. The percentage of EMT was generally calculated based on phenotype counting 100 cells per field under the microscope. All the potential EMT stimuli used herein are described in Table 6 and they were prepared and stored as per supplier specification.
Phase contrast microscopy was utilized for EMT and wound healing assays under 10× or 20× magnification of Olympus Fluorescence 1X71 microscope. Images were captured and analyzed as described above except that wound healing assay pictures were also analyzed by Image J software (Free software in Public domain developed by NIH).
The adherent human mammary adenocarcinoma MCF-7 and MDA-MB-231 cells were cultured in low glucose DMEM (Gibco) and both supplemented with 10% FCS, 2 mM L-glutamine and 0.1% PSN antibiotics. […] For Bisindolylmaleimide-I (Calbiochem) or PKC-θ peptide inhibitor (Calbiochem) studies, cells were pre-treated with 1 μM or 30 μM of inhibitor respectively for 1 h prior to stimulation in MCF-7 cells. In case of MDA-MB-231, cells were treated with 4 μM or 30 μM Bisindolylmaleimide-I or PKC-θ peptide inhibitor respectively.
phase contrast microscopy was performed where cells were viewed at ×4 magnification (wound healing assay) or ×10 magnification (EMT) using an Olympus fluorescence IX71 microscope (Olympus) and images were captured using DPController software (2002 Olympus Optical Co. LTD) and analyzed using Photoshop CS3 (Adobe Systems Inc.). Scans were taken with a 10 μm scale bar.

[2] = test system: laminin-5, uPAR and CD44 transcripts in MCF-7 cells; assay: TaqMan real time PCR transcript analysis of EMT/CSC genes in MCF-IM model; format: cell-based, human
Protocol: For most of the experiments, total RNA was extracted from 5×10^5 to 1×10^6 MCF-7 cells unless otherwise specified. Cells were first thawed in 1 mL of Trizol® Reagent (Invitrogen, Carlsbad, Calif.) for 5 minutes at room temperature to inactivate RNases, followed by trituration to dislodge the cell pellet. The dissociated cells suspended in Tizol (1 mL) were transferred into a 1.5 mL Eppendorf tube for 5 minutes for homogenization. RNA was then extracted by addition of 200 μL chloroform and mixing was done vigorously before centrifuging the samples at 8,000×g for 30 minutes at 4° C. The aqueous layer was then collected into a fresh 1.5 mL Eppendorf tube and an equal volume of isopropanolol was added to the aqueous layer and mixed gently. After 5 minutes at room temperature, samples were either snap frozen on dry ice and stored at −70° C. overnight or until the isolation procedure could be re-commenced. After thawing the samples quickly, the samples were again centrifuged at 8,000×g for 30 minutes at 4° C. to precipitate the RNA. To remove all traces of isopropanolol, next the RNA pellets were washed with 1 mL of ice cold 80% ethanol (Analytical UNIVAR, Seattle, Wash.) before centrifuging at 3,600×g for 10 minutes at 4° C. All ethanol then was removed and pellets were allowed to air dry for 5 minutes. RNA samples were then solubilized by re-suspending them in 50 μL of nuclease-free DEPC (Diethylpyrocarbonate treated) water (Ambion, VIC, Australia). Next, 2 μL of the sample was taken out to measure RNA quality and quantity on Nano-drop® Spectrophotometer ND 1000 (Nanodrop Technologies, Inc., Wilmington, Del., USA) using ND-1000 V3.30 software. All the RNA samples were found pure as they had A260/A280 ratio of 1.9-2.1 and this ratio provides an estimate of RNA purity with respect to contaminants such as proteins that absorb in the UV spectrum.
Superscript™® III kit (Invitrogen, Carlsbad, Calif.) was used for cDNA synthesis. Master mix-1 was prepared by adding 1 μL of 5 μM oligo (dT) and 1 μL of 100 mM dNTPs and mixed by flicking. Mastermix-2 was prepared by adding 2 μL of RT buffer, 2 μL of 3 mM mgCl2, 2 μL of DTT mix, 1 μL of RNAse out, 1 μL of superscript III and mixed by flicking. For 1 μg RNA, 2 μL of the master mix-1 was added to the samples, mixed and incubated at 65° C. for 5 minutes and then samples were placed on ice to stop the reaction. This step was followed by addition of 10 μL of the master mix-2 per sample and incubation of samples at 50° C. for 50 minutes. The reaction was then stopped by incubating samples at 85° C. for 5 minutes followed by placing the samples on the ice for 2 minutes. […] All the samples were either snap frozen on dry ice or used immediately for quantitative Real-Time PCR analysis. […]

| Structure (SMILES) | PMA-induced EMT-like morphological changes ([1]; pre-incubation with Go6976) | transcription of key inducible EMT/CSC genes (laminin-5, uPAR, CD44) ([2]; Go6976 1 μM for 1 hour prior to PMA) | EMT (morphology) [1] | EMT (morphology) ([1]; listed as Broad spectrum PKC pathway inhibitor) | transcription of key inducible EMT/CSC genes (laminin-5, uPAR, CD44) ([2]; bisindolylmaleimide-I 100 nM for 1 hour prior to PMA) | transcription of key inducible EMT/CSC genes (laminin-5, uPAR, CD44) ([2]; bisindolylmaleimide-I 1 μM for 1 hour prior to PMA) | transcription of key inducible EMT/CSC genes (laminin-5, uPAR, CD44) ([2]; bisindolylmaleimide-I 1 μM for 1 hour prior to PMA, listed as Broad spectrum PKC pathway inhibitor) |
| --- | --- | --- | --- | --- | --- | --- | --- |
| Cn1c2ccccc2c2c3c(c4c5ccccc5n(CCC#N)c4c21)CNC3=O [Go6976] | did not prevent PMA-induced EMT-like morphological changes or CSC formation | failed to inhibit transcription of key inducible EMT/CSC genes |  |  |  |  |  |
| CN(C)CCCn1cc(C2=C(c3c[nH]c4ccccc34)C(=O)NC2=O)c2ccccc21 [bisindolylmaleimide-I] |  |  | inhibits EMT | inhibition of EMT and CSC formation | cannot inhibit transcription of key inducible EMT/CSC genes | inhibits transcription of key inducible EMT/CSC genes | inhibition of EMT and CSC formation |
